Experimental data taken from paper PMC10384408, “Anticancer Tungstenocenes with a Diverse Set of (O,O–), (O,S–) and (O,N–) Chelates—A Detailed Biological Study Using an Improved Evaluation via 3D Spheroid Models” (Pharmaceutics, 2023).

Tests used:
[1] = Aqueous stability by UV/Vis in PBS; type: physicochemical; conditions: 24 h, 293 K, 1 vol% DMSO
Description: Stock solutions in DMSO of compounds 1–10 were utilized to determine the solubility in PBS by adding 1 vol% of the stock solution to a suitable amount of PBS. […] UV/Vis data were recorded on a Perkin Elmer Lambda 650 UV/Vis Spectrophotometer with a Peltier element for temperature control.
In order to examine the stability of the compounds in aqueous solution, UV/Vis measurements were performed every hour during 24 h at 293 K. Solutions of compounds 1–10 were prepared in PBS (10%) from a previously prepared DMSO stock solution of each compound. The total concentration of DMSO was 1 vol% for the final complex solutions of 1–10.

HCT116 spheroids [2] = assay: Spheroid growth, HCT116; type: cell-based, human; conditions: 10 µM, 96 h treatment
Description: (§1) For growing multicellular tumor spheroids, 400 HCT116, 400 HT29 or 800 MCF-7 cells per well were plated into round-bottom ultra-low attachment 96-well plates (Corning, Glendale, AZ, USA) in the media described above and incubated at 37 °C for 96 h. Spheroids were treated with 10 µM of the two most cytotoxic compounds 3 and 4 for another 96 h. The diameters of the spheroids were measured with Cell^F software under a CKX41 Olympus microscope before treatment and in constant daily intervals over the 96 h treatment period. For statistical analysis the t-test with Welsh’s correction was implemented in GraphPad Prism software (Version 6.01).

HT29 spheroids = assay: Spheroid growth, HT29; type: cell-based, human; conditions: 10 µM, 96 h treatment
Description: as §1

MCF-7 spheroids = assay: Spheroid growth, MCF-7; type: cell-based, human; conditions: 10 µM, 96 h treatment
Description: as §1

HCT116 spheroids [3] = assay: KI67 immunofluorescence staining of cryo-sectioned spheroids; type: cell-based, human; conditions: 72 h; for KI67+ cells: untreated control 38.1 ± 7.3 %
Description: Spheroids were grown and cryosectioned, as described in the section above. For immunofluorescence staining the samples were fixed with 4% PFA (in PBS) for 15 min. The slides were washed with PBS before permeabilization with 0.1% Triton-X (Sigma-Aldrich, Steinheim, Germany) for 10 min. After three times washing with PBS the samples were stained for 45 min with 10% goat serum (G9023, Sigma-Aldrich) und 5% BSA for avoiding non-specific antibody binding. After one washing step a primary antibody against Ki67 (#9129, Cell Signaling Technology) was applied and samples incubated overnight at 4 °C. On the next day, slides were washed with PBS and incubated with goat anti-rabbit Alexa Fluor 594 (#8889 Cell Signaling Technology) for 1 h at room temperature in the dark, followed by two washing steps with PBS. Slides were mounted with ProlonGold Antifade Reagent with DAPI (Invitrogen, Thermo Fisher) and analyzed with a confocal laser scanning microscope Zeiss LSM800 (Zeiss, Jena, Germany). Images were processed with Zen software (Zeiss). For fluorescence signal intensities data extraction ImageJ/Fiji1.46 was used. For quantification, the maximum signal intensity of the KI67^+ cells was evaluated relative to the untreated control. For statistical analysis the t-test with Welsh’s correction was implemented in GraphPad Prism software (Version 6.01).

pUC19 plasmid = assay: Electrophoretic dsDNA plasmid assay; type: biochemical; conditions: 50 µM, up to 6 h, 37 °C
Description: An amount of 400 ng of the pUC19 plasmid (2686 bp, New England Biolabs, Ipswich, MA, USA) was incubated with the test compounds (50 µM). Stock solutions of the test compounds were prepared in MilliQ water. The samples were incubated for different intervals (15 min to 6 h) with continuous shaking at 37 °C. Following the incubation time, 4 µL aliquots of 6 × DNA loading dye (Thermo Fisher, Kandel, Germany) were added to the 20 µL DNA samples. Electrophoresis was performed in a 1% agarose gel in 1 × TBE buffer, started at 60 V for 5 min and continued at 120 V for 90 min. Ethidium bromide (EtBr, Serva Electrophoresis GmbH, Heidelberg, Germany) staining was conducted in 1 × TBE (0.75 µg/mL) for 20 min. Images were taken by the GelDoc Imaging System Fusion F×7 (Vilber Lourmat, Eberhardzell, Germany). For quantification ImageJ/Fiji1.46 was used.

[4] = Cell-free DCF fluorescence quenching assay
Description: To verify interactions of complex 4 with the fluorescence of DCF (2′,7′-dichlorofluorescein, Sigma-Aldrich), a fluorescence quenching assay was performed. For this purpose, DCF was dissolved in abs. ethanol (Sigma-Aldrich), diluted in phenol-red-free MEM (1% FBS) to 5 µM and complex 4 dissolved in DMF, diluted to 20 and 200 µM in the same medium. Furthermore, two combinations of 5 µM DCF with 20 and 200 µM of complex 4 were prepared. The fluorescence intensity of the substances alone and their combinations were measured (excitation: 485/20 nm, emission: 516/20 nm) in 10 min intervals with the Synergy HT reader (BioTek) over 2 h.

HT29 cells = conditions: 200 µM
MCF-7 cells = conditions: 200 µM

| SMILES | precipitation in PBS [1] | spheroid growth (HCT116 spheroids [2]) | spheroid growth (HT29 spheroids) | spheroid growth (MCF-7 spheroids) | further results |
| --- | --- | --- | --- | --- | --- |
| F[P-](F)(F)(F)(F)F.O=c1c([O-])c(-c2ccc(Cl)cc2)oc2ccccc12.[W+4].c1cc[cH-]c1.c1cc[cH-]c1 [Compound 3, Bis(η^5-cyclopentadienyl)[2-(4-chlorophenyl)-3-(oxo-κO)-4(H)-chromen-4-oato-κO]tungsten(IV) hexafluorophosphate] | slowly precipitate out of the solution over time | markedly reduced growth | completely stop spheroid growth | completely stop spheroid growth | reduction in number of KI67+ cells relative to untreated control (HCT116 spheroids [3]; 20 µM): 2.4 fold; KI67+ cells (HCT116 spheroids [3]; 20 µM): 15.8 ± 2.8%; interaction with plasmid dsDNA (pUC19 plasmid): showing the ability to induce DNA nicks |
| F[P-](F)(F)(F)(F)F.[O-]c1c(-c2ccc(Cl)cc2)oc2ccccc2c1=S.[W+4].c1cc[cH-]c1.c1cc[cH-]c1 [Compound 4, Bis(η^5-cyclopentadienyl)[2-(4-chlorophenyl)-3-(oxo-κO)-4(H)-chromen-4-thionato-κS]tungsten(IV) hexafluorophosphate] | slowly precipitate out of the solution over time | completely stopped spheroid growth | completely stop spheroid growth | completely stop spheroid growth | reduction in number of KI67+ cells relative to untreated control (HCT116 spheroids [3]; 15 µM): 2 fold; KI67+ cells (HCT116 spheroids [3]; 15 µM): 19.1 ± 1.3%; lower fluorescence intensity relative to DCF (5 µM) alone ([4]; DCF 5 µM + complex 20 µM): 36.8%; lower fluorescence intensity relative to DCF (5 µM) alone ([4]; DCF 5 µM + complex 200 µM): 77.2% |
| F[P-](F)(F)(F)(F)F.O=C([O-])c1ccccn1.[W+4].c1cc[cH-]c1.c1cc[cH-]c1 [Compound 5, Bis(η^5-cyclopentadienyl)[2-(carboxylato-κO)-pyridine-κN]tungsten(IV) hexafluorophosphate] | – | – | – | – | viable cells [%] AV- / PI- (HT29 cells): 91.5 ± 8.9%; viable cells [%] AV- / PI- (MCF-7 cells): 86.6 ± 7.6% |
| Cc1cc(=O)c([O-])co1.F[P-](F)(F)(F)(F)F.[W+4].c1cc[cH-]c1.c1cc[cH-]c1 [Compound 7, Bis(η^5-cyclopentadienyl)[2-methyl-5-(oxo-κO)-4-(1H)-pyran-4-ato-κO] tungsten(IV) hexafluorophosphate] | slowly precipitate out of the solution over time | – | – | – | – |
| Cc1cc(=S)c([O-])co1.F[P-](F)(F)(F)(F)F.[W+4].c1cc[cH-]c1.c1cc[cH-]c1 [Compound 8, Bis(η^5-cyclopentadienyl)[2-methyl-5-(oxo-κO)-pyran-4-(1H)-thionato-κS] tungsten(IV) hexafluorophosphate] | slowly precipitate out of the solution over time | – | – | – | single-strand breaks (sc form to oc form) (pUC19 plasmid): 15 ± 2% |
| CCc1occc(=S)c1[O-].F[P-](F)(F)(F)(F)F.[W+4].c1cc[cH-]c1.c1cc[cH-]c1 [Compound 10, Bis(η^5-cyclopentadienyl)[2-ethyl-3-(oxo-κO)-4-(1H)-pyran-4-thionato-κS] tungsten(IV) hexafluorophosphate] | slowly precipitate out of the solution over time | – | – | – | – |
